Experimental data: publication PMC10316653 (iScience, 2023)
Read-outs that look alike come from different tables or passages of the source. *1 amine or outer side, *2 acyl side, *3 side chain or, on linkers, in order; H or OH if unused. Where a SMILES comes first, the peptide text is derived from it. Bridges are numbered along the chain shown (N, C = ends). [ ]: non-standard residue; d: D form. X1 = CC(=O)NC(C(=O)OC(C(C)C)C(N[*:1])C(=O)[*:2])C(O)C(C)C; PhLac = O=C(O)[CH](O)Cc1ccccc1; NMeT = CN[CH](C(=O)O)[CH](C)O; NMeA = CN[CH](C)C(=O)O; NMeDha = C=C(NC)C(=O)O

What was measured:
[1] = tested on: H9C2 cells; assay: Intracellular calcium mobilization assay in H9C2 cells; assay type: cell-based, rat; details: for inhibition of UTP-induced calcium response: 1 μM pretreatment 20 min
[2] = molecular target: T1, A2BAR (Rattus norvegicus, UniProt P29276); assay: cAMP accumulation assay in H9C2 cells endogenously expressing the A2BAR; assay type: cell-based
T1 sequence (P29276 1-332): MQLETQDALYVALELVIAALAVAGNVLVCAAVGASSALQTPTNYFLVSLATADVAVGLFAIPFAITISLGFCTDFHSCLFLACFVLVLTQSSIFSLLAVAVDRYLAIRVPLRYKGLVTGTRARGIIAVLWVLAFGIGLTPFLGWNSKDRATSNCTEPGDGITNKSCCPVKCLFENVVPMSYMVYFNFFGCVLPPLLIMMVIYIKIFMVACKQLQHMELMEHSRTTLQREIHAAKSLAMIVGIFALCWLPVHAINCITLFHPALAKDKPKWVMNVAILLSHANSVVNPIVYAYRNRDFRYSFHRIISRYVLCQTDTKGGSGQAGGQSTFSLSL

[3] = molecular target: T2, A2BAR (Mus musculus, UniProt Q60614); assay: cAMP accumulation in NIH3T3 cells endogenously expressing the A2BAR; assay type: cell-based; details: 20 min
T2 sequence (Q60614 1-332): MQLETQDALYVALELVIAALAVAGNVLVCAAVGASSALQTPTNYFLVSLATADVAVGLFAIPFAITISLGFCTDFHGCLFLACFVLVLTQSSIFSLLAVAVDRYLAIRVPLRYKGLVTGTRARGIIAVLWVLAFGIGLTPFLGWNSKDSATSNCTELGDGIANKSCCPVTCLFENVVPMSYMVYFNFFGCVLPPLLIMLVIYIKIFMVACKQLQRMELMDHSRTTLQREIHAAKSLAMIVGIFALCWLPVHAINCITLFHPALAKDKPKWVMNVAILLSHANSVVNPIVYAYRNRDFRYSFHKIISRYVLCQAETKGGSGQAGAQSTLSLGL

[4] = molecular target: T3, A2BAR (Homo sapiens, UniProt P29275); assay: cAMP accumulation assay in HEK293-A2B cells; assay type: cell-based
T3 sequence (P29275 1-332): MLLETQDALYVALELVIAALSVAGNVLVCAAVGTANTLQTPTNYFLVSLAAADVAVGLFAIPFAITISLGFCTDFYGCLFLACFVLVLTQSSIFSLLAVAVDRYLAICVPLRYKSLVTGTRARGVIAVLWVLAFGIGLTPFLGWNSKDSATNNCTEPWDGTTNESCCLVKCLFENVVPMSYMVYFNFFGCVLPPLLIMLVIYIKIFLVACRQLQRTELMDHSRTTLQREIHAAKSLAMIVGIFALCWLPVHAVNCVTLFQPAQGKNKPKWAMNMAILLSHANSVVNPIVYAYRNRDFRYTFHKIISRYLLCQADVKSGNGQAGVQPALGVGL

[5] = tested on: adenylyl cyclase; assay: Forskolin-stimulated cAMP accumulation in H9C2 cells; assay type: cell-based, rat; details: PMA 1 μM 40 min, forskolin 10 μM
[6] = molecular target: T3, A2BAR; assay: cAMP accumulation in Gi-null HEK293 cells; assay type: cell-based; details: PMA 1 μM 40 min
[7] = molecular target: T3, A2BAR; assay type: cell-based
[8] = molecular target: T3, A2BAR; assay: Radioligand binding to membranes from HEK293-A2B cells
[9] = molecular target: T3, A2BAR; assay: cAMP accumulation assay in naive HEK293 cells; assay type: cell-based; details: for effect on PKC (PMA)-induced enhancement of BAY-induced cAMP accumulation: inhibitor 1 μM, PMA 1 μM, BAY 10 μM
[10] = molecular target: T4, recombinant rat A2BAR (Rattus norvegicus, UniProt P29276); assay: cAMP accumulation in H9C2 cells expressing the recombinant rat A2BAR; assay type: cell-based; details: H9C2 cells with rat A2BAR expression, 0.3 μg/well
T4 sequence (P29276 1-332): T1 sequence (P29276 1-332)

[11] = molecular target: T3, A2BAR; assay: cAMP accumulation in Gi-null HEK293-A2B cells; assay type: cell-based; details: read-out: Emax of cAMP accumulation (10 μM forskolin in HEK293-A2B = 100%)
[12] = tested on: ERK1/2; assay: ERK1/2 activity assay in H9C2 cells; assay type: cell-based, rat
[13] = molecular target: T3, A2BAR; assay: Intracellular calcium mobilization assay in HEK293-A2B cells; assay type: cell-based; details: for effect on NECA-induced intracellular calcium mobilization: 1 μM pretreatment 20 min
[14] = tested on: PKCδ; details: reported selectivity profile, ref not given; cited from earlier work
[15] = tested on: PKCθ; details: reported selectivity profile, ref not given; cited from earlier work
[16] = HEK293-A2B cells treated with PMA 1 μM 40 min

CCNC(=O)[C@H]1O[C@@H](n2cnc3c(N)ncnc32)[C@H](O)[C@@H]1O [NECA, adenosine-5′-N-ethyluronamide]
induction of calcium mobilization [1]: did not induce calcium mobilization

CCCCCCCCCCCCCC(=O)O[C@@H]1[C@@H](C)[C@@]2(O)[C@@H](C=C(CO)C[C@]3(O)C(=O)C(C)=C[C@@H]23)[C@@H]2C(C)(C)[C@]12OC(C)=O [PMA, phorbol 12-myristate 13-acetate]
enhancement of A2BAR agonist-induced cAMP accumulation ([2]; H9C2 cells, PMA 1 nM pretreatment 40 min): 25% | Emax of cAMP accumulation relative to NECA ([2]; naive H9C2 cells, 5 min (Figure S10)): about 20 % of NECA | maximal cAMP level (10 μM NECA = 100%) ([2]; naive H9C2 cells, 20 min (Figure 7C)): 20.0 ± 0.36% | EC50 ([2]; potency of enhancing effect on A2BAR-mediated cAMP accumulation, H9C2 cells): ~1 nM | cAMP accumulation versus NECA = 100% [3]: 34.9 ± 7.7% | EC50 ([4]; EC50, cAMP accumulation, HEK293-A2B cells, incubated 60 min): 56.4 nM | effect of pretreatment on NECA- or BAY-induced cAMP accumulation ([4]; HEK293-A2B cells, PMA 40 min): raised the basal cAMP level but not the Emax | Emax ([4]; read-out: activation Emax (Emax of NECA = 100%)): 84.7% | effect of pretreatment on forskolin-stimulated cAMP accumulation [5]: did not inhibit or enhance | enhancement of the function of BAY (cAMP accumulation) [6]: 37% | inhibition of UTP-induced calcium response [1]: completely inhibited | Emax ([7]; HEK293, read-out: Emax of cAMP accumulation (10 μM forskolin = 100%)): 49.3 ± 4.6% | maximal agonist effect (10 μM NECA = 100%) ([7]; HEK293 cells with recombinant human A2BAR expression, 0.3 μg/well): 35.5 ± 5.0% | effect of treatment on agonist [3H]NECA binding [8, 16]: significantly increased agonist binding | effect of treatment on antagonist [3H]DPCPX binding [8, 16]: did not affect | displacement of specific binding of [3H]NECA (25 nM) ([8]; membranes from HEK293-A2B cells, 1 μM): 1.6 ± 1.2% | Emax ([9]; HEK293, read-out: maximal stimulation relative to Emax of NECA): < 10% | maximal agonist effect (10 μM NECA = 100%) ([9]; naive HEK293 cells, 20 min (Figure 7D)): 7.36 ± 1.08% | enhancement of the function of BAY (cAMP accumulation) ([9]; wild-type HEK293 cells, PMA 1 μM 40 min): 95% | maximal cAMP level (10 μM NECA = 100%) [10]: 65.4 ± 8.0% | Emax [11]: 19.3 ± 3.1% | ERK1/2 phosphorylation ([12]; PMA 1 μM, sustained over 30 min): > 300 % above baseline | induction of calcium mobilization [13]: did not induce calcium mobilization | effect on NECA-induced intracellular calcium mobilization [13]: inhibited

CCCn1c(=O)[nH]c2nc(-c3ccc(S(=O)(=O)N4CCN(c5ccc(Cl)cc5)CC4)cc3)[nH]c2c1=O [PSB603]
effect on PMA-induced cAMP accumulation ([2]; naive H9C2 cells, antagonist 1 µM): inhibited | effect on PMA-induced ERK1/2 phosphorylation ([12]; 1 μM added 20 min before PMA 1 μM): not affected | effect on NECA-induced intracellular calcium mobilization [13]: inhibited

CN(C)C[C@H]1CCn2c(c(C3=C(c4cn(C)c5ccccc45)C(=O)NC3=O)c3ccccc32)C1 [RO320432]
effect on PKC (PMA)-induced enhancement of BAY-induced cAMP accumulation ([9]; naive HEK293 cells): blocked PKC-induced enhancement

CC(C)[C@H]1C(=O)N[C@H](CO)Cc2cc(NC(=O)/C=C/C=C/c3ccc(C(F)(F)F)cc3)ccc2N1C [TPPB]
effect of pretreatment on BAY-induced cAMP accumulation ([9]; HEK293 cells, TPPB 1 µM 40 min): also enhanced the function of BAY

O=c1ccn([C@@H]2O[C@H](COP(=O)(O)OP(=O)(O)OP(=O)(O)O)[C@@H](O)[C@H]2O)c(=O)[nH]1 [UTP]
induction of calcium mobilization [1]: induced a robust calcium response

CC(C)[C@@](C)(O)[C@@H]1CN(c2nc(-c3[nH]nc4ncccc34)c(F)cc2Cl)CCN1 [VTX-27]
IC50 [14]: 16 nM | effect on PKC (PMA)-induced enhancement of BAY-induced cAMP accumulation ([9]; naive HEK293 cells): did not significantly inhibit | IC50 [15]: 0.08 nM

C=C1C(=O)NC(C)C(=O)N(C)C(C)C(=O)NC(C(OC(=O)C(NC(C)=O)C(O)C(C)C)C(C)C)C(=O)N(C)C(C(C)OC)C(=O)OC(C)C(NC(C)=O)C(=O)OC(Cc2ccccc2)C(=O)N1C (centres unmarked) [YM254890] (Ac-T[PhLac][NMeDha]A[NMeA][X1][NMeT](Me); ester 1-C; configuration not given here)
inhibition of UTP-induced calcium response [1]: completely inhibited
